{"source": "patent US6953789B2", "about": "“Thiol compounds, their production and use” (Takeda Chemical Industries, Ltd., priority 1998, dated 2005)"}
{"target": "T1, recombinant human MMP-13 (Homo sapiens, UniProt P45452)", "T1 construct": "made in house; host or cells: baculovirus (pBlueBac4 / Bac-N-Blue; virus made in Sf9), expressed in High-Five insect cells; culture supernatant used", "assay": "Assay of MMP-13 inhibiting activity (fluorogenic peptide substrate)", "assay_type": "biochemical", "details": "Table 1; 37° C., 2 hours", "excerpt": "(§1) Based on the sequence described in the literature by Freije, J. M. et al (Journal of Biological Chemistry, 269: 16766-16773, 1994) and using a PCR method known per se, a human MMP-13 cDNA was obtained.\n(§2) A pBlueBac4 (Invitrogen) and a Baculovirus vector Bac-N-Blue (Invitrogen) to each of which the human MMP-13 cDNA obtained above was integrated were co-transfected to an Sf9 cell to obtain a MMP-13-expressing recombinant virus.\n(§3) The recombinant virus thus obtained was infected to a High-Five cell (Invitrogen), and the culture supernatant after three days was employed as an enzyme solution. Experiment 2 Assay of MMP-13 inhibiting activity\n(§4) 75 μl of a sample containing the recombinant human MMP-13, 200 mM sodium chloride, 20 mM calcium chloride, 0.1% Brij 35, 1 mM 2-mercaptoethanol, 200 mM tris-HCl buffer solution (pH7.5) and a test substance at various concentrations was treated with 25 μl of 40 μM MOCAc-Pro-Leu-Gly-Leu-A2pr(DNP)-Ala-Arg-NH2 (PEPTIDE KENKYUSHO) to initiate a reaction and kept at 37° C. for 2 hours, and then 100 μl of 500 mM sodium acetate-HCl buffer solution (pH3.0) was added to terminate the reaction.\n(§5) The level of liberated MOCAc-Pro-Leu-Gly was determined using a fluorophotometer (MTP-32/F2: CORONA DENKI) at the excitation wavelength of 330 nm and the fluorescent wavelength of 405 nm. The fluorescent level of the reaction in the absence of a test substance was regarded as 100%, and the concentration of each test substance required for achieving 50% inhibition was indicated as IC50.", "units": {"IC50": "nM"}}
{"compound": "O=C(SC1CC(=O)N(Cc2ccc(Oc3ccccc3)cc2)C1=O)c1ccccc1", "note": "(centres unmarked) [Example 6, 3-Benzoylthio-1-(4-phenoxybenzyl)pyrrolidine-2,5-dione]", "IC50": 2}
{"target": "T1, recombinant human MMP-13", "assay": "Assay of MMP-13 inhibiting activity (fluorogenic peptide substrate)", "assay_type": "biochemical", "details": "Table 3; 37° C., 2 hours", "excerpt": "as §1, §2, §3, §4, §5", "units": {"IC50": "nM"}}
{"compound": "O=C1CC(SCCS(=O)(=O)c2ccccc2)CN1Cc1ccc(Oc2ccccc2)cc1", "note": "(centres unmarked) [Example 97, 1-(4-phenoxybenzyl)-4-{[2-(phenylsulfonyl)ethyl]sulfanyl}-2-pyrrolidinone]", "IC50": 2000}
{"compound": "CNC(=S)S[C@@H]1CC(=O)N(Cc2ccc(Oc3ccccc3)cc2)C1", "note": "[Example 76]", "IC50": 1.2}
{"compound": "CC(C)(C)C(=O)OCSC1CC(=O)N(Cc2ccc(Oc3ccccc3)cc2)C1", "note": "(centres unmarked) [Example 18, 4-Pivaloyloxymethylthio-1-(4-phenoxybenzyl)pyrrolidin-2-one]", "IC50": 30}
{"compound": "CCOC(=O)CC(=O)S[C@@H]1CC(=O)N(Cc2ccc(Oc3ccccc3)cc2)C1", "note": "[Example 71, Ethyl 3-oxo-3-{[(3R)-5-oxo-1-(4-phenoxybenzyl)pyrrolidinyl]sulfanyl}propanoate]", "IC50": 0.89}
{"compound": "O=C(Cc1ccccc1)SC1CC(=O)N(Cc2ccc(Oc3ccccc3)cc2)C1", "note": "(stereo not drawn) [Example 68, S-[5-oxo-1-(4-phenoxybenzyl)-3-pyrrolidinyl]2-phenylethanethioate]", "IC50": 2}
{"compound": "CCNC(=O)S[C@@H]1CC(=O)N(Cc2ccc(Oc3ccccc3)cc2)C1", "note": "[Example 51, S-[(3R)-5-oxo-1-(4-phenoxybenzyl)pyrrolidinyl]ethylthiocarbamate]", "IC50": 1}
{"compound": "CC(C)(C)OC(=O)CC(=O)S[C@@H]1CC(=O)N(Cc2ccc(Oc3ccccc3)cc2)C1", "note": "[Example 72, t-Butyl 3-oxo-3-{[(3R)-5-oxo-1-(4-phenoxybenzyl)pyrrolidinyl]sulfanyl}propanoate]", "IC50": 2.4}
{"compound": "COC(=O)c1ccc(CS[C@@H]2CC(=O)N(Cc3ccc(Oc4ccccc4)cc3)C2)cc1", "note": "[Example 95, Methyl 4-({[(3R)-5-oxo-1-(4-phenoxybenzyl)pyrrolidinyl]sulfanyl}methyl)benzoate]", "IC50": 400}
{"compound": "CCCC(=O)S[C@@H]1CC(=O)N(Cc2ccc(Oc3ccccc3)cc2)C1", "note": "[Example 65, S-[(3R)-5-oxo-1-(4-phenoxybenzyl)pyrrolidinyl]butanethioate]", "IC50": 1.3}
{"compound": "O=C(Nc1ccccc1)SC1CC(=O)N(Cc2ccc(Oc3ccccc3)cc2)C1", "note": "(stereo not drawn) [Example 53, S-[5-oxo-1-(4-phenoxybenzyl)-3-pyrrolidinyl]phenylcarbamothioate]", "IC50": 1}
{"compound": "CS[C@@H]1CC(=O)N(Cc2ccc(Oc3ccccc3)cc2)C1", "note": "[Example 89, (4R)-4-(Methylsulfanyl)-1-(4-phenoxybenzyl)-2-pyrrolidinone]", "IC50": 700}
{"compound": "COC(=O)SS[C@@H]1CC(=O)N(Cc2ccc(Oc3ccccc3)cc2)C1", "note": "[Example 78, (4R)-4-[(Methoxycarbonyl)disulfanyl]-2-oxo-1-(4-phenoxybenzyl)pyrrolidine]", "IC50": "> 10000"}
{"compound": "O=C1CC(S[C@@H]2CC(=O)N(Cc3ccc(Oc4ccccc4)cc3)C2)C(=O)N1", "note": "(stereo partly drawn) [Example 105, 3-{[(3R)-5-Oxo-1-(4-phenoxybenzyl)pyrrolidinyl]sulfanyl}-2,5-pyrrolidinedione]", "IC50": 40}
{"compound": "CCSS[C@@H]1CC(=O)N(Cc2ccc(Oc3ccccc3)cc2)C1", "note": "[Example 79, (4R)-4-(Ethyldisulfanyl)-1-(4-phenoxybenzyl)-2-pyrrolidinone]", "IC50": 100}
{"target": "T1, recombinant human MMP-13", "assay": "Assay of MMP-13 inhibiting activity (fluorogenic peptide substrate)", "assay_type": "biochemical", "details": "Table 4; 37° C., 2 hours", "excerpt": "as §1, §2, §3, §4, §5", "units": {"IC50": "nM"}}
{"compound": "O=C1CC(S)CN1Cc1cccc(Oc2ccccc2)c1", "note": "(centres unmarked) [Example 41, 4-Mercapto-1-(3-phenoxybenzyl)pyrrolidin-2-one]", "IC50": 200}
{"target": "T1, recombinant human MMP-13", "assay": "Assay of MMP-13 inhibiting activity (fluorogenic peptide substrate)", "assay_type": "biochemical", "details": "Table 5; 37° C., 2 hours", "excerpt": "as §1, §2, §3, §4, §5", "units": {"IC50": "nM"}}
{"compound": "CC(C)C[C@H]1[C@H](S)CC(=O)N1Cc1ccc(Oc2ccccc2)cc1", "note": "(relative stereo) [Example 180, trans-5-Isobutyl-4-mercapto-1-(4-phenoxybenzyl)pyrrolidin-2-one]", "IC50": 20}
{"compound": "CC(=O)S[C@@H]1CC(=O)N(Cc2ccc(Oc3ccccc3)cc2)[C@H]1C", "note": "[Example 177, (4R,5S)-4-Acetylthio-5-methyl-1-(4-phenoxybenzyl)pyrrolidin-2-one]", "IC50": 2}
{"compound": "CCOC(=O)CNC(=O)[C@H]1[C@H](SC(C)=O)CC(=O)N1Cc1ccc(Oc2ccccc2)cc1", "note": "(relative stereo) [Example 186, trans-4-Acetylthio-5-ethoxycarbonylmethylaminocarbonyl-1-(4-phenoxybenzyl)pyrrolidin-2-one]", "IC50": 50}
{"compound": "CC(=O)S[C@@H]1CC(=O)N(Cc2ccc(Oc3ccccc3)cc2)[C@H]1C(=O)NCCO", "note": "(relative stereo) [Example 189, trans-4-Acetylthio-5-(2-hydroxyethyl)aminocarbonyl-1-(4-phenoxybenzyl)pyrrolidin-2-one]", "IC50": 89}
{"target": "T1, recombinant human MMP-13", "assay": "Assay of MMP-13 inhibiting activity (fluorogenic peptide substrate)", "assay_type": "biochemical", "details": "Table 8; 37° C., 2 hours", "excerpt": "as §1, §2, §3, §4, §5", "units": {"IC50": "nM"}}
{"compound": "O=C1C(S)CCN1Cc1ccc(Oc2ccccc2)cc1", "note": "(centres unmarked) [Example 29, 3-Mercapto-1-(4-phenoxybenzyl)pyrrolidin-2-one]", "IC50": 2000}
{"target": "T1, recombinant human MMP-13", "assay": "Assay of MMP-13 inhibiting activity (fluorogenic peptide substrate)", "assay_type": "biochemical", "details": "Table 9; 37° C., 2 hours", "excerpt": "as §1, §2, §3, §4, §5", "units": {"IC50": "nM"}}
{"compound": "(R)-4-Acethylthio-1-[4-(4-chlorophenoxy)benzyl]pyrrolidin-2-one [Example 125]", "IC50": 6.1}
{"compound": "CCOC(=O)c1ccc(Oc2ccc(CN3CC(S)CC3=O)cc2)cc1", "note": "(centres unmarked) [Example 132, 4-Mercapto-1-[4-(4′-ethoxycarbonylphenoxy)benzyl]pyrrolidin-2-one]", "IC50": 3.3}
{"compound": "CC(=O)Nc1ccc(Oc2ccc(CN3CC(SC(C)=O)CC3=O)cc2)cc1", "note": "(centres unmarked) [Example 144, 4-Acetylthio-1-[4-(4′-acetoaminophenoxy)benzyl]pyrrolidin-2-one]", "IC50": 2.7}
{"compound": "O=C1CC(S)CN1Cc1ccc(Oc2ccc([N+](=O)[O-])cc2)cc1", "note": "(centres unmarked) [Example 143, 4-Mercapto-1-[4-(4′-nitrophenoxy)benzyl]pyrrolidin-2-one]", "IC50": 11}
{"compound": "CC(=O)SC1CC(=O)N(Cc2ccc(Oc3ccc(O)cc3)cc2)C1", "note": "(centres unmarked) [Example 136, 4-Acetylthio-1-[4-(4′-hydroxyphenoxy)benzyl]pyrrolidin-2-one]", "IC50": 9}
{"compound": "CC(=O)SC1CC(=O)N(Cc2ccc(Oc3ccc(NS(C)(=O)=O)cc3)cc2)C1", "note": "(centres unmarked) [Example 146, 4-Acetylthio-1-[4-(4′-methylsulfonylaminophenoxy)benzyl]pyrrolidin-2-one]", "IC50": 25}
{"compound": "CC(=O)S[C@@H]1CC(=O)N(Cc2ccc(Oc3ccc(F)cc3)cc2)C1", "note": "[Example 117, (R)-4-Acethylthio-1-[4-(4′-fluorophenoxy)benzyl]pyrrolidin-2-one]", "IC50": 7}
{"compound": "CC(=O)SC1CC(=O)N(Cc2ccc(Oc3ccccc3)c([N+](=O)[O-])c2)C1", "note": "(centres unmarked) [Example 151, 4-Acetylthio-1-(3-nitro-4-phenoxybenzyl)pyrrolidin-2-one]", "IC50": "> 10000"}
{"compound": "CC(=O)SC1CC(=O)N(Cc2ccc(Oc3ccc(C(=O)O)cc3)cc2)C1", "note": "(centres unmarked) [Example 133, 4-Acetylthio-1-[4-(4′-carboxyphenoxy)benzyl]pyrrolidin-2-one]", "IC50": "> 10000"}
{"compound": "O=C1CC(S)CN1Cc1ccc(Oc2ccc(O)cc2)cc1", "note": "(centres unmarked) [Example 137, 4-Mercapto-1-[4-(4′-hydroxyphenoxy)benzyl]pyrrolidin-2-one]", "IC50": 3}
{"target": "T1, recombinant human MMP-13", "assay": "Assay of MMP-13 inhibiting activity (fluorogenic peptide substrate)", "assay_type": "biochemical", "details": "Table 10; 37° C., 2 hours", "excerpt": "as §1, §2, §3, §4, §5", "units": {"IC50": "nM"}}
{"compound": "O=C1CC(S)CN1Cc1ccc(S(=O)(=O)c2ccccc2)cc1", "note": "(centres unmarked) [Example 174, 4-Mercapto-1-(4-phenylsulfonylbenzyl)pyrrolidin-2-one]", "IC50": 510}
{"compound": "O=C1CC(S)CN1CCc1ccc(Oc2ccccc2)cc1", "note": "(centres unmarked) [Example 170, 1-(4-Phenoxyphenethyl)-4-sulfanyl-2-pyrrolidinone]", "IC50": 500}
{"compound": "CC(=O)SC1CC(=O)N(Cc2ccc(Sc3ccccc3)cc2)C1", "note": "(centres unmarked) [Example 154, 4-Acetylthio-1-(4-phenylthiobenzyl)pyrrolidin-2-one]", "IC50": 20}
{"target": "T1, recombinant human MMP-13", "assay": "Assay of MMP-13 inhibiting activity (fluorogenic peptide substrate)", "assay_type": "biochemical", "details": "Table 12; 37° C., 2 hours", "excerpt": "as §1, §2, §3, §4, §5", "units": {"IC50": "nM"}}
{"compound": "O=C1CC(S)CCN1Cc1ccc(Oc2ccccc2)cc1", "note": "(centres unmarked) [Example 111, 1-(4-Phenoxybenzyl)-4-sulfanyl-2-piperidinone]", "IC50": 17}
